“And” between values parts separate entries of the source, which are not always exact repeats. Equal entries are not always repeated.
Tests used:
[1] = molecular target: T1, Rat recombinant α2,3(O)ST (Rattus norvegicus, UniProt Q11205); test: Sialyltransferase assay with cloned α2,3(O)ST; format: biochemical; conditions: for Sialyltransferase activity (%) Cloned α2,3(O)ST: Table I, acceptor 7.5 mM, 100% = 40560 CPM (3-O-MeGalβ1,4GlcNAcβ1,6(Galβ1,3)GalNAcα-O-Bn); for Km / Vmax: CMP-NeuAc 150 μM, Lineweaver-Burke plot
T1 construct: purchased Calbiochem
T1 sequence (Q11205 1-350): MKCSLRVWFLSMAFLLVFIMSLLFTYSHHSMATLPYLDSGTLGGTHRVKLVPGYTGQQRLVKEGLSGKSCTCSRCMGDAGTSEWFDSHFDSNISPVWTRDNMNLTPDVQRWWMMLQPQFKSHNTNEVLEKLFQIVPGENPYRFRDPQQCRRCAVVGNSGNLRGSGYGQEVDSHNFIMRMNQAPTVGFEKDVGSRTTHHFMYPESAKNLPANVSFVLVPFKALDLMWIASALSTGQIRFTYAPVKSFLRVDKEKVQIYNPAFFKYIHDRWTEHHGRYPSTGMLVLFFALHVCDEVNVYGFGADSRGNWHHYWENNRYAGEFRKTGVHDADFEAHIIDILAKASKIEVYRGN

[2] = test system: α1,2-L-FT of colon tumor CC9338; test: α1,2-L-FT assay, colon tumor extract; format: biochemical, human; conditions: 1 mg protein of the tissue extract
Protocol: (§1) Colon tumor tissue (CC9338) and breast tumor tissue (BC9400) were obtained during surgical procedures at Roswell Park Cancer Institute and stored frozen within 1 h at −70° C. The tissues were homogenized at 4° C. with 4 volumes of 0.1M Tris Maleate […] 0.1% NaN3 using kinematica. After adjusting the concentration of Triton X-100 to 2%, these homogenates were mixed in the cold room for 1 h using Speci-Mix (Thermolyne) and then centrifuged at 20,000 g for 1 h at 4° C. The clear fat-free supernatant was stored frozen at −20° C. until use. Aliquots of 10 μL from this extract were used in assays run in duplicates. Glycosyltransferase activity in cell lysate was determined by mixing the lysates with acceptor and radiolabeled donor (monosaccharide) under the reaction conditions detailed below, followed by separation of un-reacted donor from the radioactive product using anionic or hydrophobic chromatography. In all cases, the radioactive content of isolated products was determined by using 3a70 scintillation cocktail (Research Products International, Mount Prospect, Ill.) and a Beckman LS6500 scintillation counter. Controls for each assay contained the reaction mixture with everything except the acceptor. All assays were run in duplicate.
(§2) α1,2, α1,6-, α1,3- and α1,4-fucosyltransferase (FT) assay reactions were carried out for 2 h in a reaction mixture containing 50 mM Hepes buffer (pH 7.5), 5 mM MnCl2, 7 mM ATP, 3 mM NaN3, 3 mM synthetic acceptor or 40 μg of fetuin-based acceptor, 0.05 μCi GDP-[14C]Fuc (290 mCi/mmol) and 10 μl cell extract in a total volume of 20 μl [Chandrasekaran et al., 1996]. Sulfotransferase (Sulfo T) assay reactions took 2 h and required a mixture containing 100 mM Tris-maleate (pH 7.2), 5 mM Mg Acetate, 5 mM ATP, 10 mM NaF, 10 mM BAL, 7.5 mM acceptor, 0.5 μCi of [^35S]PAPS (specific activity 2.4 Ci/mmol) and 10 μl of cell extract in a total volume of 30 μl [Chandrasekaran et al., 2004].
(§3) Dowex-1-C1 or Sep-Pak C18 cartridges were used to isolate radiolabeled product from the reaction mixture. For GalT, GalNAc-T and FT assays, the incubation mixture was diluted with 1 ml water and passed through a 1 ml Dowex-1-C1 column [Chandrasekaran et al., 1996; Chandrasekaran et al., 2001]. The column was washed twice with 1 ml of water. The breakthrough and the water wash contained the [^14C]-galactosylated or [^14C]-fucosylated products formed with neutral acceptors. 3 ml of 0.1M NaCl was used to obtain [^14C]-fucosylated products from sialylated acceptors after water elution. For sialytransferase assays, the radioactive products from benzylglycosides were separated by hydrophobic chromatography on Sep-Pak C18 cartridge (Waters, Milford, Mass.), and elution of the product was done with 3 ml methanol [Palcic et al., 1988]. […]

[3] = test system: α1,2-L-FT of breast tumor BC9400; test: α1,2-L-FT assay, breast tumor extract; format: biochemical, human; conditions: 1 mg protein of the tissue extract
Protocol: as §1, §2, §3

Compound	Sialyltransferase activity (%) Cloned α2,3(O)ST [1]	α1,2-L-FT activity: incorporation of radioactive sugar [2] [CPM × 10^−3]	α1,2-L-FT activity: incorporation of radioactive sugar [3] [CPM × 10^−3]	Km [1] [µM]	Vmax [1]
CO[C@H]1[C@H](O[C@H]2[C@H](O)[C@@H](NC(C)=O)C(O)O[C@@H]2CO)O[C@H](CO)[C@H](O)[C@@H]1O (stereo partly drawn) [2-O-MeGalβ1,4GlcNAc]	0.2%	–	–	–	–
CO[C@H]1[C@H](O[C@H]2[C@H](O)[C@@H](CO)OC(O)[C@@H]2NC(C)=O)O[C@H](CO)[C@H](O)[C@@H]1O (stereo partly drawn) [2-O-MeGalβ1,3GlcNAc]	2.9%	–	–	–	–
C=CCO[C@H]1O[C@H](CO)[C@H](O)[C@H](O[C@@H]2O[C@H](CO)[C@H](O)[C@H](O)[C@H]2O)[C@H]1NC(C)=O [Galβ1,3GalNAcα-O—Al]	112.0%	36.8	5.5	–	–
CO[C@H]1O[C@H](CO)[C@H](O)[C@H](O[C@@H]2O[C@H](CO)[C@H](O)[C@H](O[C@@H]3O[C@H](CO)[C@H](O)[C@H](O)[C@H]3O)[C@H]2NC(C)=O)[C@H]1O [Galβ1,3GalNAcβ1,3Galα-O-Me]	120.8% and 120.8^2%	49.1	13.7	120	1293^13 pmol/h
CO[C@H]1O[C@H](CO)[C@H](O)[C@H](O[C@@H]2O[C@H](CO)[C@H](O)[C@H](O[C@@H]3O[C@H](C)[C@H](O)[C@H](O)[C@H]3O)[C@H]2NC(C)=O)[C@H]1O [D-Fucβ1,3GalNAcβ1,3Galα-O-Me]	115.6^3%	89.8	16.2	560	1873 pmol/h

Reference: patent US20100221763A1, “Specific Acceptors for Transferases to Saccharides and Method for Obtaining and Using Same” (Health Research, Inc, priority 2005, published 2010)
